Experiments:
LDL receptor = assay: Immunoblot of LDL receptor expression in estrogen-treated rats; type: in vivo; conditions: rat, liver
SR-BI = assay: Immunoblot of SR-BI expression in tissues of estrogen-treated rats; type: in vivo, rat
Experimental: Tissues of estrogen-treated rats were screened for expression of SR-BI as described above following treatment of rats with 17-α-ethylenyl estradiol (estrogen). The rats were treated for five consecutive days with subcutaneous injections of 5 mg/kg 17-α-ethylenyl estradiol in propylene glycol or with propylene glycol alone (sham-injected).

HDL lipid uptake = HDL lipid uptake in vivo after DiI-HDL injection in estrogen-treated rats; design: species or system rat; conditions: DiI-HDL 800 μg protein/kg into jugular vein, 1 hour
Experimental: For analysis of HDL lipid uptake in vivo, rats were anesthetized with nembutal or metafane before injection of DiI-HDL (800 μg protein/kg) into the left jugular vein. 1 hour later the anesthetized animals were perfused with oxygenated HBSS. Frozen sections (12 μm thick) of sucrose-infiltrated tissues were prepared. Tissue sections were viewed and photographed with a Zeiss photomicroscope III with the appropriate filter package.

[1] = Plasma total cholesterol and FPLC lipoprotein profile of PROBUCOL-fed mice; type: in vivo; conditions: for Reduction of plasma cholesterol levels: 0.5% PROBUCOL chow; for Average plasma total cholesterol (±SEM): 0.5% PROBUCOL-enriched chow
Experimental: (§1) • Lipoprotein analysis. Plasma, collected from Avertin anesthetized mice, was size fractionated by FPLC, and the total cholesterol in each fraction or in unfractionated plasma was determined as described previously (Rigotti, A., et al. 1997 Proc. Natl. Acad. Sci. USA. 94:12610–12615) or by using a commercial kit (Wako Chemical USA Inc., Richmond, Va., USA). For apoA-I KO mice, 500 μl of pooled plasma was used for FPLC analyses. • Animals. […] Opinl Lipidol. 11:123-131 (2000)), apoA-I KO (Kozarsky, et al., Nature 387414–417 (1997)) (C57BL/6; The Jackson Laboratory, Bar Harbor, Me., USA), and RAG-2 KO (mixed C57BL/6×129×BALB/c background; gift from Jianzhu Chen, Massachusetts Institute of Technology). Double SR-BI/apoA-I KO and SR-BI/RAG-2 KO mice were produced by (a) mating SR-BI KO males with apoA-I KO or RAG-2-KO females, (b) transferring the resulting embryos into Swiss Webster recipients, and (c) intercrossing the double heterozygous offspring.

[2] = system: SR-BI KO and wild-type female mice; assay: Fertility of female mice mated with wild-type males; type: in vivo
Experimental: as §1
Colonies were maintained by crossing double- KO males with females heterozygous for the SR-BI null mutation and homozygous for the apoA-I or RAG-2 mutation to optimize the low yield of SR-BI homozygotes. It has been possible to obtain only a few homozygous null SR-BI KO mice on an essentially pure C57BL/6 background (backcrossed nine times to pure C57BL/6 mice). Experiments with these (n=3; 4- month matings, no litters) and additional mixed background SR-BI KO mice (n=19) confirmed the extremely low fertility of female SR-BI KO mice. PCR was used for genotyping the various mutant mouse lines. The primers for analyses were as follows: for SR-BI, the primers were as described by Rigotti, et al., Proc. Natl. Acad. Sci. USA 94:12610–12615 (1997); for apoA-I, the following set of four primers were used: 5′ -[…]-3′ (SEQ ID NO:8), 5′-[…]-3′(SEQ ID NO:9), 5′-[…]-3′ (SEQ ID NO:10), and 5′-[…]-3 (SEQ ID NO:11)′ (sequences and protocols originally from the Jackson Laboratories), or primers 5′-[…]-3″ (SEQ ID NO: 12) and 5′-[…]-3′(SEQ ID NO:13); and for RAG-2, the primers were 5′-[…]-3″(SEQ ID NO:14) and 5′-[…]-3″ (SEQ ID NO:15) (kindly provided by Charles Whitehurst, Massachusetts Institute of Technology). All animal studies were approved by the Massachusetts Institute of Technology Committee on Animal Care. To test the fertility of genetically, surgically, or pharmacologically manipulated female mice, virgin females were housed continuously with wild-type males, and numbers of litters and pups were counted during the mating period. […] Otherwise shorter 1- to 2-month mating periods were used when the fertile females produced litters relatively quickly. • Ovary transplantation. Donor SR-BI KO or control wild-type mice (5–6 weeks of age) were sacrificed by cervical dislocation, and the ovaries were removed. Hosts (RAG-2 KO mice), 4–6 weeks of age, were anesthetized with 2.5% Avertin (intraperitoneally), and ovary transfer surgery was performed. In brief, ovaries of the host mice were removed from the surrounding ovarian bursa by cutting the side opposite to the ovarian hilus. Ovaries from the donor mice were then inserted into the ovarian bursa and the bursa closed with Vetbond tissue adhesive (3M Animal Care Products, St. Paul, Minn., USA). In sham ovary transplants (n=5), ovaries of SR-BI KO mice were removed and reinserted into the same mouse (either unilaterally when the contralateral oviduct was cut, n=1, or bilaterally, n=4). […]

[3] = estrogen-treated versus control rats
[4] = rat, 5 mg/kg subcutaneous for five consecutive days, versus sham-injected
[5] = PROBUCOL-fed SR-BI KO females, n=14, 1- to 2-month mating

Compound | LDL receptor expression (LDL receptor) | SR-BI expressed in the liver (SR-BI; [3]) | SR-BI in the ovaries (SR-BI; [3]) | SR-BI expression in adrenal membranes (SR-BI; [4]) | SR-BI levels in tissues showing trace signal (lung, testes, skin) (SR-BI; [4]) | SR-BI expression (immunoblot compared with LDL receptor) (SR-BI; rat, estrogen-treated, liver) | DiI-HDL fluorescence in the ovaries (HDL lipid uptake) | Uptake of lipid into adrenal tissues (HDL lipid uptake) | Reduction of plasma cholesterol levels ([1]; SR-BI KO mice) | Average plasma total cholesterol (±SEM) ([1]; SR-BI KO mice, n=14) | Effect on apparent sizes of the HDLs ([1]; wild-type and SR-BI KO mice, FPLC) | Reduction of plasma cholesterol levels ([1]; wild-type mice) | Average plasma total cholesterol (±SEM) ([1]; wild-type mice, n=9) | Average time from mating to delivery ([2]; PROBUCOL-fed SR-BI KO females) | Average litter size [2, 5] | Percentage of females producing litters [2, 5] | Average litter size ([2]; PROBUCOL-fed wild-type females, n=9, 1- to 2-month mating) | Restoration of fertility ([2]; SR-BI KO females, treatment began 1–3.5 weeks before mating and continued throughout)
17-α-ethylenyl estradiol [estrogen] | tremendous upregulation | significantly reduced levels | elevated levels | upregulation of SR-BI | no change in SR-BI levels | dramatically downregulated | elevated levels | dramatically increased | – | – | – | – | – | – | – | – | – | –
CC(C)(Sc1cc(C(C)(C)C)c(O)c(C(C)(C)C)c1)Sc1cc(C(C)(C)C)c(O)c(C(C)(C)C)c1 [PROBUCOL™, 4,4′-(isopropylidenedithio) bis(2,6-di-tert-butylphenol)] | – | – | – | – | – | – | – | – | approximately 49% | 107.8 ± 6.3 mg/dL | without substantially altering the apparent sizes of the HDLs | approximately 67% | 33.6 ± 3.4 mg/dL | 28.4 days | 5.7 | 93% | 5.3 | completely restored fertility

From patent US7208467B2, “Lipid-altering compositions for the treatment of infertility” (priority 2002, dated 2007)
